Measurements as given in article PMC10817170, “Effect of an NHE3 inhibitor in combination with an NPT2b inhibitor on gastrointestinal phosphate absorption in Rodent models” (PLOS ONE, 2024).
Values joined by “and” are separate entries in the source; they are usually repeats but may differ in a detail not shown here. Identical values can stand only once.

Columns and labels:
NHE3 = tested on: T1, NHE3; test: Sodium and phosphate excretion in urine after oral NaH2PO4 bolus in rats; assay type: in vivo; settings: 4 h urine; for Phosphorus-to-Creatinine / Sodium-to-Creatinine / Total Urinary Phosphorus / Total Urinary Sodium / Urinary-to-Dietary Phosphate / Urinary-to-Dietary Sodium / Urine Volume: NaH2PO4 bolus
T1 construct: from tissue; host or cells: intestine of living SD rats
Method: To assess sodium and phosphate absorption in rats, we took advantage of the increase in urinary sodium and phosphate excretion following an oral bolus of sodium phosphate. Thus, an LY3304000 dependent decrease in urinary sodium and phosphate excretion following an oral bolus dose of sodium phosphate is an indirect measurement of the ability of LY3304000 to inhibit sodium and phosphate absorption in intestine. A dosing solution of 3 mg/kg LY3304000 for a 10 mL/kg dose volume was formulated in 1% HEC. The subsequent dosing solutions of 1, 0.3, 0.1, 0.03, 0.01, 0.003, and 0.001 mg/kg LY3304000 were prepared by serial dilutions with 1% HEC. An NaH2PO4 dosing solution at 690 mg/kg with a 20 mL/kg dosing volume was made in sterile water. Male SD rats were fasted for 4 hours with access to water and then orally dosed at 10 mL/kg with 1% HEC vehicle or varying dose of LY3304000 at 0.001, 0.003, 0.01, 0.03, 0.1, 0.3, 1, and 3 mg/kg. In this and subsequent studies where phosphate absorption is measured, a 4 hour fast was used which is less disruptive to the animal’s normal physiology than the 12 hours fast used to measure acute phosphate uptake into plasma. Fifteen minutes later, rats were dosed with either sterile water or NaH2PO4 solution, and then immediately transferred to metabolic cages. Urine samples were collected from the metabolic cages at 4 hours post sterile water or NaH2PO4 dose. The net urine volume was recorded. Urinary sodium, creatinine, and phosphorus (as a measure of phosphate) were determined using a clinical biochemistry analyzer. The urinary sodium-to-creatinine and phosphorus-to-creatinine ratios were calculated and compared between vehicle and LY3304000 treated groups. The ratios of urinary-to-dietary phosphate (measured as phosphorus) and urinary-to-dietary sodium in urine were compared between vehicle and LY3304000 treated groups.

[1] = tested on: acute phosphate uptake into plasma; test: Acute radiolabeled phosphate uptake into plasma in mice; assay type: in vivo
Method: A dosing solution for a 10 mg/kg dose of LY3304000 using a 10 mL/kg dosing volume was made in 1% HEC vehicle. The subsequent dosing solutions for 3, 1, 0.3, 0.1, 0.03, 0.01, 0.003, and 0.001 mg/kg were prepared by serial dilutions with HEC. A Radiolabeled Phosphate Dosing Solution was made in a 16.25 mM Na2HPO4, 0.9% saline, pH 7.4, solution with the addition of about 2.5 μCi/mL radioactive phosphate (H3^33PO4, PerkinElmer) and filtered before dosing. Following 12-hour fasting with access to water, male SD rats were orally dosed at 10 mL/kg with either vehicle or varying doses of LY3304000. Fifteen minutes later, 2 mL of the Radiolabeled Phosphate Dosing Solution was dosed by oral gavage. This dose of phosphate was chosen because it approximates the rat equivalent to the amount of bioavailable phosphate in a human meal, 4 mg/kg phosphorus, or 320 mg phosphorus for an 80 kg person on a phosphate restricted diet. Fifteen minutes later, blood was collected by cardiac stick, and plasma was prepared. Radioactivity (dpm) in 50 μL plasma was measured by scintillation counting. To determine the total radioactivity dosed to each rat, the radioactivity in two 10-μL samples of the Radiolabeled Phosphate Dosing Solution was measured by scintillation counting. To calculate the total radioactivity recovered in plasma, it was assumed that total blood volume constitutes about 60% of the body weight and plasma constitutes about 55% of the total blood. The mole amount of phosphate uptake was calculated as the percentage of administered radiolabeled phosphate recovered in the plasma of vehicle or LY3304000 treated rats multiplied by total phosphate amount in the radiolabeled phosphate dosing solution. ED50 values were then determined with a 4-parameter logistic curve fitting model using GraphPad Prism. A 15-minute time point, post phosphate dosing, was chosen for collecting blood in the acute phosphate uptake studies in rats and mice (see below) to capture the initial rate of phosphate absorption. We wanted to avoid measurements at longer time points when plasma radiolabeled phosphate appears to be at a steady state. LY3304000 dosing solution and Radioactive Phosphate Dosing Solution were made as described above. Following 12-hour fasting with access to water, male C57Bl/6 mice were dosed orally at 10 mL/kg with either vehicle or varying doses of LY3304000. Fifteen minutes later, 200 μL of the Radiolabeled Phosphate Dosing Solution was dosed by oral gavage. Fifteen minutes later, blood was collected by cardiac stick, and plasma was prepared. The measurement of acute phosphate uptake was determined as described above for rats.

## CN1Cc2c(Cl)cc(Cl)cc2[C@H](c2cccc(S(=O)(=O)NCCOCCOCCN/C(=N\C(N)=O)NCCCCN/C(=N/C(N)=O)NCCOCCOCCNS(=O)(=O)c3cccc([C@@H]4CN(C)Cc5c(Cl)cc(Cl)cc54)c3)c2)C1.Cl.Cl [LY3304000, (Z)-[[4-[[(Z)-N’-carbamoyl-N-[2-[2-[2-[[3-[(4S)-6,8-dichloro-2-methyl-3,4-dihydro-1H-isoquinolin-4-yl]phenyl]sulfonylamino]ethoxy]ethoxy]ethyl]carbamimidoyl]amino]butylamino]-[2-[2-[2-[[3-[(4S)-6,8-dichloro-2-methyl-3,4-dihydro-1H-isoquinolin-4-yl]phenyl]sulfonylamino]ethoxy]ethoxy]ethylamino]methylene]urea dihydrochloride]
NHE3; 0.001 mg/kg po
  Phosphorus-to-Creatinine: 14 mg/mg
  Sodium-to-Creatinine: 10 mg/mg
  Total Urinary Phosphorus: 12501 µg
  Total Urinary Sodium: 9084 µg
  Urinary-to-Dietary Phosphate: 0.337
  Urinary-to-Dietary Sodium: 0.326
  Urine Volume: 4 mL
NHE3; 0.003 mg/kg po
  Phosphorus-to-Creatinine: 14.1 mg/mg
  Sodium-to-Creatinine: 12.2 mg/mg
  Total Urinary Phosphorus: 12997 µg
  Total Urinary Sodium: 11429 µg
  Urinary-to-Dietary Phosphate: 0.350
  Urinary-to-Dietary Sodium: 0.413
  Urine Volume: 4.6 mL
NHE3; 0.01 mg/kg po
  Phosphorus-to-Creatinine: 15 mg/mg
  Sodium-to-Creatinine: 9.8 mg/mg
  Total Urinary Phosphorus: 12066 µg
  Total Urinary Sodium: 8104 µg
  Urinary-to-Dietary Phosphate: 0.320
  Urinary-to-Dietary Sodium: 0.290
  Urine Volume: 3.8 mL
NHE3; 0.03 mg/kg po
  Phosphorus-to-Creatinine: 13 mg/mg
  Sodium-to-Creatinine: 9.8 mg/mg
  Total Urinary Phosphorus: 9961 µg
  Total Urinary Sodium: 7637 µg
  Urinary-to-Dietary Phosphate: 0.268
  Urinary-to-Dietary Sodium: 0.276
  Urine Volume: 2.7 mL
NHE3; 0.1 mg/kg po
  Phosphorus-to-Creatinine: 12.3 mg/mg
  Sodium-to-Creatinine: 5.3 mg/mg
  Total Urinary Phosphorus: 7247 µg
  Total Urinary Sodium: 2850 µg
  Urinary-to-Dietary Phosphate: 0.197
  Urinary-to-Dietary Sodium: 0.105
  Urine Volume: 1.7 mL
NHE3; 0.3 mg/kg po
  Phosphorus-to-Creatinine: 12 mg/mg
  Sodium-to-Creatinine: 2.4 mg/mg
  Total Urinary Phosphorus: 6250 µg
  Total Urinary Sodium: 1095 µg
  Urinary-to-Dietary Phosphate: 0.168
  Urinary-to-Dietary Sodium: 0.039
  Urine Volume: 1 mL
NHE3; 1 mg/kg po
  Phosphorus-to-Creatinine: 11.3 mg/mg
  Sodium-to-Creatinine: 2.4 mg/mg
  Total Urinary Phosphorus: 7081 µg
  Total Urinary Sodium: 1400 µg
  Urinary-to-Dietary Phosphate: 0.191
  Urinary-to-Dietary Sodium: 0.051
  Urine Volume: 1.4 mL
NHE3; 3 mg/kg po
  Phosphorus-to-Creatinine: 9.5 mg/mg
  Total Urinary Phosphorus: 5346 µg
  Total Urinary Sodium: 612 µg
  Urinary-to-Dietary Phosphate: 0.144
  Urinary-to-Dietary Sodium: 0.022
  Urine Volume: 1 mL
NHE3; 3 mg/kg po, 3 mg/kg
  Sodium-to-Creatinine: 1.0 ± 0.4 mg/mg and 1 mg/mg
NHE3; urinary-to-dietary phosphorus
  ED50, urinary phosphorus excretion: 0.041 mg/kg
NHE3; urinary-to-dietary sodium
  ED50, urinary sodium excretion: 0.058 mg/kg
[1]; Mus musculus, po, 0.25 h, oral, plasma 15 min post 33P phosphate, read-out: ED50 (increase of phosphate uptake)
  ED50: 0.48 mg/kg
[1]; curve fit
  Emax, Pi uptake: 80.01 nmol
[1]; highest doses tested, vehicle 39 nmoles
  radiolabeled phosphate recovered in plasma: 78 nmol
[1]; oral, plasma 15 min post 33P phosphate
  ED50 (increase of phosphate uptake): 0.479 mg/kg
